In PMC4691232 (Chemistry & Biology, 2015):
“Also recorded” adds a separate entry of the source.

What was measured:
WcbL [1] = molecular target: T1, WcbL (Burkholderia pseudomallei, UniProt H7C745); experiment: biochemical
WcbL [2] = molecular target: T1, WcbL; experiment: biochemical; format: binding

T1 sequence (H7C745 1-346): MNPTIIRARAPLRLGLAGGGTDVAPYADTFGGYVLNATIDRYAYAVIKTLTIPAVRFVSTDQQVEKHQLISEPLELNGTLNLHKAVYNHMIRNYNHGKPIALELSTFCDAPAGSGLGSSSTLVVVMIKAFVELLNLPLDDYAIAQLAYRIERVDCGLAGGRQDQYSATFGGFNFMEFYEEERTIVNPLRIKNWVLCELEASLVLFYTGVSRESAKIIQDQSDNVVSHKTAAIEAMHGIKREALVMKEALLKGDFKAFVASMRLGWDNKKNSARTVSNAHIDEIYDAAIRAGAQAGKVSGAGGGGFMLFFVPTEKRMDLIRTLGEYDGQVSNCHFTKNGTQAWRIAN

Row | SMILES | activity against WcbL (structure-activity relationship study, in words) (WcbL [1]) | Kd (WcbL [2]) | cooperativity coefficient n (DSF binding) (WcbL [2]) | Ki (WcbL [1])
1 | O=c1ccoc2ccccc12 [chromone] | significantly weaker activity; also recorded: does not inhibit WcbL |  |  | 
2 | O=P(O)(O)OCC(O)C1OC(O)C(O)C(O)C1O [M7P, D-manno-α,β-D-heptose-7-phosphate] |  | 968 ± 37 µM | did not show any cooperativity | 
3 | Nc1ncnc2c1ncn2[C@@H]1OC(COP(=O)(O)OP(=O)(O)OP(=O)(O)O)[C@@H](O)[C@H]1O (stereo partly shown) [ATP] |  | 33 ± 7 µM | 0.6 ± 0.06 | 
4 | N#Cc1coc2c(Cl)cc(Cl)cc2c1=O [6,8-dichloro-3-cyanochromone] | significantly weaker activity; also recorded: far less potent inhibitor |  |  | 
5 | N#Cc1coc2ccccc2c1=O [3-cyanochromone] |  |  |  | 10 ± 6 µM
6 | O=Cc1coc2ccccc2c1=O [chromone-3-carboxaldehyde] | significantly weaker activity; also recorded: much weaker IC50 |  |  | 
7 | N#Cc1coc2ccc(Br)cc2c1=O [6-bromo-3-cyanochromone] | very similar to those of the original compound |  |  | 12 ± 5 µM
